According to paper PMC6567057, “Pharmacokinetic, metabolic stability, plasma protein binding and CYP450s inhibition/induction assessment studies of N-(2-pyridylmethyl)-2-hydroxiymethyl-1-pyrrolidinyl-4-(3-chloro-4-methoxy-benzylamino)-5-pyrimidine-carboxamide as potential type 5 phosphodiesterase inhibitors” (Animal Cells and Systems, 2019):
Where two headings read alike, the source gives them in different places.

Experiments:
Format in all cases: in vitro ADME
CYP2C19 = molecular target: T1, CYP2C19 (Homo sapiens, UniProt P33261); test: CYP isozyme inhibition in human liver microsomes; settings: calculated from inhibition at 3 μM
T1 construct: tissue BD Gentest; host or cells: pooled human liver microsomes
Description: (§1) The stock solutions of the probe substrates phenacetin (20.0 mM), diclofenac (20.0 mM), S-mephenytoin (30 mM), dextromethorphan (10.0 mM), midazolam (10.00 mM) and testosterone (50.0 mM) were prepared using methanol, while α-Naphtoflavone (3.0 mM), sulfaphenazole (3.0 mM), N-3-benzylnirvanol (3.0 mM), quinidine (3.0 mM), ketoconazole (3.0 mM) and NHPPC (10.0 mM) were prepared using DMSO, and diluted with phosphate buffer (PB, 100 mM, pH 7.4) before added into the incubation system. The organic solvents in the final incubate were no more than 0.20%. The incubation medium was 100 mM phosphate buffered saline, and the final incubation volume was 200 μL containing 25 pmol/mL human liver microsomes CYP enzyme, probe substrate, 1 mM NADPH and NHPPC at 3.00 μM. The reactions were initiated after 5 min pre-incubation at 37°C and were terminated by the addition of 400 μL ice-cold acetonitrile. All incubations were conducted in triplicate, and the samples were stored at −80°C until analysis. Calculation of IC50 was performed by using following equations, where C is concentration of test compounds.

CYP2C9 = molecular target: T2, CYP2C9 (Homo sapiens, UniProt P11712); test: CYP isozyme inhibition in human liver microsomes; settings: calculated from inhibition at 3 μM
T2 construct: tissue BD Gentest; host or cells: pooled human liver microsomes
Description: as §1

CYP1A2 = molecular target: T3, CYP1A2 (Homo sapiens, UniProt P05177); test: CYP isozyme inhibition in human liver microsomes; settings: calculated from inhibition at 3 μM
T3 construct: tissue BD Gentest; host or cells: pooled human liver microsomes
T3 sequence (P05177 1-516): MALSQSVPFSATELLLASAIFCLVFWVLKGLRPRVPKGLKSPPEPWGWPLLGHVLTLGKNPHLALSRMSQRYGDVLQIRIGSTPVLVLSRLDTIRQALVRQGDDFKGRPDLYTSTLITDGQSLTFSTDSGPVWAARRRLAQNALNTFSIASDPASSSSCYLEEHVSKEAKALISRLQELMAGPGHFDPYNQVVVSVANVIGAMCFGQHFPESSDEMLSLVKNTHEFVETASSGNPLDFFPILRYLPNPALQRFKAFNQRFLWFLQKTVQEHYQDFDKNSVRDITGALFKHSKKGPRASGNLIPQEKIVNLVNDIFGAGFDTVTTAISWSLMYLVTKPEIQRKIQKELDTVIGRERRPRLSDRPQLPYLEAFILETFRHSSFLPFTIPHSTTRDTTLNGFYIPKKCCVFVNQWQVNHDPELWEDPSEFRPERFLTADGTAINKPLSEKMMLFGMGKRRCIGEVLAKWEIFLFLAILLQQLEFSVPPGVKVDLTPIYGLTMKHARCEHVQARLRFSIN
Description: as §1

CYP2D6 = molecular target: T4, CYP2D6 (Homo sapiens, UniProt P10635); test: CYP isozyme inhibition in human liver microsomes; settings: calculated from inhibition at 3 μM
T4 construct: tissue BD Gentest; host or cells: pooled human liver microsomes
Description: as §1

CYP3A4 = molecular target: T5, CYP3A4 (Homo sapiens, UniProt P08684); test: CYP isozyme inhibition in human liver microsomes; settings: calculated from inhibition at 3 μM
T5 construct: tissue BD Gentest; host or cells: pooled human liver microsomes
Description: as §1

[1] = Stability in plasma, 6 h incubation at 37°C (dog); settings: beagle
Description: The phosphate buffer (100 mM) and sodium hydroxide solution (1.0 M) were prepared in deionized water. […] PPB was determined by equilibrium dialysis method. An aliquot (150 μL) of NHPPC spiked plasma and phosphate buffer (pH 7.4) was added into the donor side and the receiver side of each designated well. The plate was covered with adhesive sealing film to prevent evaporation and placed in a water-bath shaker kept at 37°C for 6 h with a rate of 50 rpm. […] At the end of 6 h, aliquots were taken from each side of each well (n = 3) and kept in a −20°C freezer prior to analysis. The stability, device recovery and PPB were calculated using the following equations: Remaining at 6 h (%)=C6h/C0h×100%, Device recovery (%)=CDonor+CReceiver/C6h×100%, PPB (%)=CDonor−CReceiver/CDonor×100%.

[2] = In vitro metabolic stability in human liver microsomes; settings: for remaining at 1 h, 1 µM: liver microsomes, pH 7.4, human liver microsomes, 60 min, read-out: percent remaining
Description: The phosphate buffer (pH 7.4, 100 mM) and (300 mM) were prepared in deionized water. NADP and IA were dissolved in phosphate buffer and MgCl2 solution and then added 20 μL IDH (18 units/mg protein) and mixed. NHPPC (1 mM) and positive control drug were prepared by dilution using DMSO and then the NHPPC and positive control drug working solution (50 μM) were obtained by dilution using methanol: H2O (1:1, v/v) mixture. Pooled human, rat and dog liver microsomes were added to phosphate buffer pH7.4 to a concentration 20 mg/mL. NHPPC was incubated with liver microsomes. The incubation solution of the final reaction conditions contained 50 mM potassium phosphate buffer (pH 7.4), 0.5 mg protein/mL microsomes, 3 mM MgCl2, 2 mM NADPH and 1 μM NHPPC or positive control drug in a final volume of 100 μL. In sample and positive control groups, NADPH was added into the incubation solutions. In the negative control group, water (the replacement of NADPH) was added into the incubation solutions. Samples were incubated aerobically in a shaking water bath at 37°C and the reaction was terminated by adding 300 μL of ice cold acetonitrile (contain 100 ng/mL IS) at different interval 0, 5, 10, 20, 30 and 60 min. While positive control and negative control were incubated aerobically in a shaking water bath at 37°C for 0 and 60 min, respectively. NHPPC and control concentrations were determined by LC-MS/MS at each time point (n = 3). Calculation of t1/2 and CLint was performed by using following equations, where K is the elimination rate constant (min^−1) and QH is hepatic blood flow (mL/min/kg). t1/2=0.693/KCLint,in vitro=VD×KVD=Volume of reaction mixture(mL)/mg of protein per reation.
Hepatic intrinsic clearance was estimated by using the scaling factors and calculated by using the following equation (Lave et al. [1997]). CLint,in vivo=CLint×mg microsomal protein per liver×g liver per kg body weight, Cint,H=CLint,in vivo×QH/CLint,in vivo+QH,EH=CLint,H/QH.

T5 sequence (P08684 whole entry): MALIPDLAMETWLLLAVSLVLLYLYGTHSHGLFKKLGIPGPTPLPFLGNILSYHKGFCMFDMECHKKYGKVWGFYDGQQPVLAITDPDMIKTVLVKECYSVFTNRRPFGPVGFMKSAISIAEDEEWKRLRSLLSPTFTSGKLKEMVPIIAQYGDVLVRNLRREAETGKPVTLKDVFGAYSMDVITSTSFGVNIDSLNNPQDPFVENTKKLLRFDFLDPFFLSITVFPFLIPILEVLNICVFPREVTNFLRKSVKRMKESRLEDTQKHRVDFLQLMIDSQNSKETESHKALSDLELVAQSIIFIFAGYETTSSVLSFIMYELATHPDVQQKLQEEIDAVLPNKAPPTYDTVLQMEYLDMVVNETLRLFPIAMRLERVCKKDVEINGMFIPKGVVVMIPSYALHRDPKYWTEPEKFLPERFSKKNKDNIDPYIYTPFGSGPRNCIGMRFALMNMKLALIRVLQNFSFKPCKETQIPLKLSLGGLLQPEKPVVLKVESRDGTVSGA
T2 sequence (P11712 whole entry): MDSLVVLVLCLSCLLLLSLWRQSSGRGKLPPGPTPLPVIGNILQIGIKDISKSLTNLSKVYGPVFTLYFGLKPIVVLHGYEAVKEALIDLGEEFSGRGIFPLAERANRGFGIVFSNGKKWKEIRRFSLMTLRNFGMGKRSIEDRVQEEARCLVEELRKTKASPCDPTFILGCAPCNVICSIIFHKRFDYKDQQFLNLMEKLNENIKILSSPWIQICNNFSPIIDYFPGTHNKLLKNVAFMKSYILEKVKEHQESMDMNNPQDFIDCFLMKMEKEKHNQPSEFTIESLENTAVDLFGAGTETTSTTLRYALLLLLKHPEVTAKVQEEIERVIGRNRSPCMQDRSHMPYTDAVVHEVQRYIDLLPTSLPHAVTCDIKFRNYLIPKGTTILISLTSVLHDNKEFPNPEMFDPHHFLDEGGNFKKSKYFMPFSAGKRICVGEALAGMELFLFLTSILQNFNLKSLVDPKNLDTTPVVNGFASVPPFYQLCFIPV
T1 sequence (P33261 whole entry): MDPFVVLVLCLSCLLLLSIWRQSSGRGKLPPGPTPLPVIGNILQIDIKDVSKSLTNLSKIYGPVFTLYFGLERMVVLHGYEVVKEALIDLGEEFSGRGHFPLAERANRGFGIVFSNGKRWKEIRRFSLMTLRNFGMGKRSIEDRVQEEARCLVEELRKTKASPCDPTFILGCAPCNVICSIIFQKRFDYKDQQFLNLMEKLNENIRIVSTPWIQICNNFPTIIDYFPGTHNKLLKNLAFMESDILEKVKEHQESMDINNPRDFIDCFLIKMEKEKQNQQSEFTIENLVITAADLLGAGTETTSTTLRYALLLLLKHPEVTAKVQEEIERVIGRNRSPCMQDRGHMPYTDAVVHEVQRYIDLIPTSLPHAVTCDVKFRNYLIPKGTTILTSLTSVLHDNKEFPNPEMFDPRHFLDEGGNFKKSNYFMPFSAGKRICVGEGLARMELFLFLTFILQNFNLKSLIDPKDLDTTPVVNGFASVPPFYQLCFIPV
T4 sequence (P10635 whole entry): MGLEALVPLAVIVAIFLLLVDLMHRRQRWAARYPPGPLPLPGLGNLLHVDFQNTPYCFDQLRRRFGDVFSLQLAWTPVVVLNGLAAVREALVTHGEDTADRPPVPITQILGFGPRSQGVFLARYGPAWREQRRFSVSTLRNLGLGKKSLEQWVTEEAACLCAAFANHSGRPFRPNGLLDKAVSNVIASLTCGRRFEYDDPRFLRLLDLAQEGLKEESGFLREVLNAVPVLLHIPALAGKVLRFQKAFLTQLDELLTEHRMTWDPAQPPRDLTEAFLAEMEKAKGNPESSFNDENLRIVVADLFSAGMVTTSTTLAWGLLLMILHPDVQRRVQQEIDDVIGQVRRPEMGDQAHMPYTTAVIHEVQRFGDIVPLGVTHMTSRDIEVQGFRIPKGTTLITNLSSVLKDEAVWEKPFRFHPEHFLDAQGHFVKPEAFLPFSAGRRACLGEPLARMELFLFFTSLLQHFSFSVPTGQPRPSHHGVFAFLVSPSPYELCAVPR

Compound: COc1ccc(CNc2nc(N3CCC[C@H]3CO)ncc2C(=O)NCc2ccccn2)cc1Cl [NHPPC, N-(2-pyridylmethyl)-2-hydroxiymethyl-1-pyrrolidinyl-4-(3-chloro-4-methoxy-benzylamino)-5-pyrimidine-carboxamide]
- IC50 (CYP2C19): > 100 µM
- IC50 (CYP2C9): 21.9 µM
- IC50 (CYP1A2): > 100 µM
- IC50 (CYP2D6): > 100 µM
- IC50 (CYP3A4; CYP3A4 (midazolam based)): > 100 µM
- IC50 (CYP3A4; CYP3A4 (testosterone based)): > 100 µM
- remaining at 6 h, 0.2 µM ([1]; 0.2 µM, n = 3, read-out: Mean drug remaining %): 99.6 ± 0.53%
- remaining at 6 h, 1 µM ([1]; 1 µM, n = 3, read-out: Mean drug remaining %): 100.4 ± 0.98%
- remaining at 6 h ([1]; mean of 0.2 and 1 µM, read-out: Mean drug remaining %): 100 ± 1.24%
- remaining at 1 h, 1 µM ([2]; human, in the presence of NADPH, 1 μM): 42%
- remaining at 1 h, 1 µM ([2]; human, without NADPH regenerating system): 99.4%
- ranking for clearance ([2]; human, ranking criteria of Houston 1994, Kerns and Di 2008): middle clearance
- CLH ([2]; human, scaled from liver microsomes): 9.80 mL/min/kg
- half-life at 1 µM ([2]; liver microsomes (pooled), pH 7.4, human liver microsomes): 46.2 min
- microsomal CLint at 1 µM ([2]; liver microsomes (pooled), pH 7.4, human liver microsomes, read-out: CLint, ivtro): 21.4 µL/min/mg
- k el at 1 µM ([2]; liver microsomes (pooled), pH 7.4, human liver microsomes, read-out: Ke (converted)): 0.00025 s⁻¹
